Laboratory results as given in patent US20070082066A1, “Use of zeaxanthin to reduce light hyper-sensitivity, photophobia, and medical conditions relating to light hyper-sensitivity” (priority 2003, published 2007).

Tests used:
Format in all cases: in vivo, human
[1] = system: light hyper-sensitivity; assay: Customer and user reports on light hyper-sensitivity after taking zeaxanthin
Excerpt: When asked about it by the Applicants herein, they offered answers that were usually along the lines of, “I hadn't noticed that. But yeah, you're right. I haven't been wearing my sunglasses as much as I used to. I just don't feel like I need them as much, or as often.”
At roughly the same time, the customer service specialist at ZeaVision also began to receive sporadic comments from people who had purchased zeaxanthin capsules to treat or prevent macular degeneration.
These discoveries led the customer support staff at ZeaVision to begin routinely asking customers about light hyper-sensitivity, if they called in and wanted to discuss the visual improvements they were enjoying after they began taking zeaxanthin.

[2] = system: migraine or other severe headaches; assay: Customer reports on frequency of migraine or other severe headaches; settings: a number of customers with migraine or recurrent headaches; zeaxanthin at 10 mg or more per day
[3] = system: sunburns; assay: Summertime exposure to direct sunlight, sunburn protection; settings: oral, about 30 to about 80 mg/day, summer of 2002, direct sunlight
Excerpt: Instead, this discovery arose out of observations that were made while zeaxanthin was being tried and evaluated by a number of people, to determine whether it could help protect the skin against sunburns. Because of various factors and events described in a separate patent application (Ser. No. 10/356,134, Gierhart et al; the contents of that application are incorporated herein by reference, as though fully set forth herein), the founder of ZeaVision (who is also one of the Inventors herein) became convinced that relatively high dosages of zeaxanthin, in the range of about 30 mg or greater per day, could increase the skin's ability to withstand direct sunlight without suffering a sunburn. Accordingly, several coworkers began taking zeaxanthin at dosages in a range of about 30 to about 80 mg/day, during the summer of 2002, to provide additional evaluation of the earliest results that had been seen.
(§1) Therefore, a patent application entitled “Protection Against Sunburn and Skin Problems with Orally-Ingested High-Dosage Zeaxanthin”, was drafted and filed in the autumn of 2002, as a provisional application, based on anecdotal evidence from several people. […] After those test data became available, the provisional patent application on sunburn prevention was expanded into a utility application.

[4] = Safety and tolerability in users taking zeaxanthin for macular degeneration; settings: 20 mg/day, thousands of users over the past few years
Excerpt: If no results are noticed at that level within about 2 to 4 weeks, the person can try a somewhat higher dosage during the next 2-4 weeks.

[5] = system: skin; assay: Indoor tests with medical-grade ultraviolet lamp, before-and-after minimal erythemal dosages; settings: high-dosage zeaxanthin, winter season
Excerpt: as §1

CC1=C(/C=C/C(C)=C/C=C/C(C)=C/C=C/C=C(C)/C=C/C=C(C)/C=C/C2=C(C)C[C@@H](O)CC2(C)C)C(C)(C)C[C@H](O)C1 [zeaxanthin]
light hyper-sensitivity, volunteered consumer comments ([1]; consumers who purchased zeaxanthin capsules to treat or prevent macular degeneration, after vs before taking): suffering less from light hyper-sensitivity | use of sunglasses when driving or outdoors ([1]; high-dosage zeaxanthin, several people working with ZeaVision, family members and friends, spring of 2003): had stopped using their sunglasses so much | unusual and unpleasant levels of light sensitivity, routine customer questioning ([1]; nearly all of the roughly 30% of customers who reported light sensitivity, after they began taking zeaxanthin capsules): less severe and less troubling | light sensitivity evaluated separately from vision clarity ([1]; nearly all patients who had reported increased light sensitivity, zeaxanthin at 10 mg or more per day): improved, significantly | frequency of migraine or other severe headaches [2]: didn't seem to be having as many migraine or other severe headaches | risk of sunburns [3]: can indeed reduce the risk of sunburns | safety and tolerability [4]: safe and well-tolerated | skin-protective effects (minimal erythemal dosages before and after) [5]: strongly confirmed the skin-protective effects
